Experimental data taken from US11000033B2, “Ketone or oxime compound, and herbicide” (NISSAN CHEMICAL CORPORATION, priority 2014, dated 2021).

What was measured:
Format in all cases: in vivo
transplanted rice plant = assay: Test Example 1: effect on crop, application before weed generation in submerged conditions (symbol a); details: application herbicide amount 320 g/ha
How it was run: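 Rice at 2.5 leaf stage transplanted into submerged soil (4 cm depth) sown with three weed species; herbicide applied before weed emergence.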

Scirpus juncoides = assay: Test Example 2: herbicidal activity, application during weed generation in submerged conditions (symbol B); details: Table 23; application herbicide amount 320 g/ha; grade 0-5 by criteria of Test Example 1
How it was run: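 Treatment timing was the one- to two-leaf stage, with diluted emulsifiable compound dropped onto the paddy water (depth 4 cm) over alluvial soil. All three species grew from a mixed sowing in a 25° C. to 30° C. greenhouse. Injury was judged by eye 3 weeks on.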

Leptochloa chinensis = assay: Test Example 3: herbicidal effect by foliage application, Wagner pot (symbol D); details: application herbicide amount 320 g/ha, Table 24
How it was run: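 The compound, formulated as an emulsion and diluted with water to a predetermined rate, is applied uniformly to leaves of two-week-old seedlings growing in submerged alluvial soil at 25–30 °C. Rice is included. Each plant is assessed 3 weeks later using defined criteria.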

Avena fatua = assay: Test Example 4: herbicidal effect by soil treatment (symbol I); details: application herbicide amount 320 g/ha
How it was run: (§1)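 Seeds were sown in sterilized diluvial soil, covered with about 1.5 cm of soil, and the soil surface was sprayed with a water-diluted emulsion of the compound at a predetermined rate. Plants grew in a greenhouse at 25° C. to 30° C.; effects were scored visually 3 weeks after application.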

Alopecurus myosuroides [1] = assay: Test Example 4: herbicidal effect by soil treatment (symbol J); details: application herbicide amount 320 g/ha
How it was run: as §1

Veronica persica = assay: Test Example 4: herbicidal effect by soil treatment (symbol R); details: application herbicide amount 320 g/ha
How it was run: as §1

wheat [2] = assay: Test Example 4: effect on crop by soil treatment (symbol e); details: application herbicide amount 320 g/ha
How it was run: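 Crop seed is sown in spots together with several weed species in a box of sterilized diluvial soil. It is covered by about 1.5 cm of soil and kept in a greenhouse held between 25° C. and 30° C.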

Digitaria ciliaris = assay: Test Example 5: herbicidal effect by foliage application, plastic box (symbol F); details: 320 g/ha, 3 weeks after application
How it was run: (§2)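 Post-emergence spray; diluvial soil (sterilized), ~1.5 cm seed cover; greenhouse 25–30° C; 14-day-old plants; water-diluted emulsion at predetermined dose; visual score at 3 wk post-treatment.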

Alopecurus myosuroides [3] = assay: Test Example 5: herbicidal effect by foliage application, plastic box (symbol J); details: 320 g/ha, 3 weeks after application
How it was run: as §2

Lolium multiflorum Lam. = assay: Test Example 5: herbicidal effect by foliage application, plastic box (symbol K); details: 320 g/ha, 3 weeks after application
How it was run: as §2

Galium spurium = assay: Test Example 5: herbicidal effect by foliage application, plastic box (symbol Q); details: 320 g/ha, 3 weeks after application
How it was run: as §2

corn = assay: Test Example 5: effect on crop by foliage application, plastic box (symbol c); details: 320 g/ha, 3 weeks after application
How it was run: (§3)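 Plants were raised from seed in a greenhouse (25° C. to 30° C.) after sowing in a plastic box of sterilized diluvial soil.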

soybean = assay: Test Example 5: effect on crop by foliage application, plastic box (symbol d); details: 320 g/ha, 3 weeks after application
How it was run: as §3

wheat [4] = assay: Test Example 5: effect on crop by foliage application, plastic box (symbol e); details: 320 g/ha, 3 weeks after application
How it was run: as §3

Row | Structure (SMILES) | a (transplanted rice plant) effect on crop grade (transplanted rice plant) | Herbicidal effect grade, B: Scirpus juncoides (Scirpus juncoides) | D (Leptochloa chinensis) herbicidal effect grade (Leptochloa chinensis) | Herbicidal effect grade, I: Avena fatua (Avena fatua) | Herbicidal effect grade, J: Alopecurus myosuroides (Alopecurus myosuroides [1]) | Herbicidal effect grade, R: Veronica persica (Veronica persica) | Effect on crop grade, e: wheat (wheat [2]) | F: Digitaria ciliaris, herbicidal effect grade (Digitaria ciliaris) | J: Alopecurus myosuroides, herbicidal effect grade (Alopecurus myosuroides [3]) | K: Lolium multiflorum Lam., herbicidal effect grade (Lolium multiflorum Lam.) | Q: Galium spurium, herbicidal effect grade (Galium spurium) | c: corn, effect on crop grade (corn) | d: soybean, effect on crop grade (soybean) | e: wheat, effect on crop grade (wheat [4])
1 | COCCON=C(CC1CC(O)=C(c2c(C)cc(Br)cc2C)C1=O)C1CC1 (centres unmarked) [9-019] | 4 (Herbicidal ratio of 70% or higher and lower than 90%) | 0 (Herbicidal ratio of 5% or lower (almost no effect)) | 5 (Herbicidal ratio of 90% or more (almost completely withered)) | 0 (Herbicidal ratio of 5% or lower (almost no effect)) | 5 (Herbicidal ratio of 90% or more (almost completely withered)) | 0 (Herbicidal ratio of 5% or lower (almost no effect)) | 0 (Herbicidal ratio of 5% or lower (almost no effect)) | 4 (Herbicidal ratio of 70% or higher and lower than 90%) | 4 (Herbicidal ratio of 70% or higher and lower than 90%) | 5 (Herbicidal ratio of 90% or more (almost completely withered)) | 0 (Herbicidal ratio of 5% or lower (almost no effect)) | 5 (Herbicidal ratio of 90% or more (almost completely withered)) | 0 (Herbicidal ratio of 5% or lower (almost no effect)) | 0 (Herbicidal ratio of 5% or lower (almost no effect))
2 | COCCON=C(CC1CC(O)=C(c2c(C)cc(-n3cc(Cl)cn3)cc2C)C1=O)C(C)C (centres unmarked) [9-022] | 5 (Herbicidal ratio of 90% or more (almost completely withered)) | 0 (Herbicidal ratio of 5% or lower (almost no effect)) | 5 (Herbicidal ratio of 90% or more (almost completely withered)) | 0 (Herbicidal ratio of 5% or lower (almost no effect)) | 0 (Herbicidal ratio of 5% or lower (almost no effect)) | 0 (Herbicidal ratio of 5% or lower (almost no effect)) | 0 (Herbicidal ratio of 5% or lower (almost no effect)) | 5 (Herbicidal ratio of 90% or more (almost completely withered)) | 2 (Herbicidal ratio of 20% or higher and lower than 40%) | 2 (Herbicidal ratio of 20% or higher and lower than 40%) | 0 (Herbicidal ratio of 5% or lower (almost no effect)) | 2 (Herbicidal ratio of 20% or higher and lower than 40%) | 0 (Herbicidal ratio of 5% or lower (almost no effect)) | 0 (Herbicidal ratio of 5% or lower (almost no effect))
3 | CC#Cc1cc(C)c(C2=C(O)CC(CC(=NOCCOC)C(C)C)C2=O)c(C)c1 (centres unmarked) [9-023] | 5 (Herbicidal ratio of 90% or more (almost completely withered)) | 4 (Herbicidal ratio of 70% or higher and lower than 90%) | 5 (Herbicidal ratio of 90% or more (almost completely withered)) | 2 (Herbicidal ratio of 20% or higher and lower than 40%) | 3 (Herbicidal ratio of 40% or higher and lower than 70%) | 0 (Herbicidal ratio of 5% or lower (almost no effect)) | 3 (Herbicidal ratio of 40% or higher and lower than 70%) | 5 (Herbicidal ratio of 90% or more (almost completely withered)) | 5 (Herbicidal ratio of 90% or more (almost completely withered)) | 5 (Herbicidal ratio of 90% or more (almost completely withered)) | 0 (Herbicidal ratio of 5% or lower (almost no effect)) | 5 (Herbicidal ratio of 90% or more (almost completely withered)) | 0 (Herbicidal ratio of 5% or lower (almost no effect)) | 1 (Herbicidal ratio of 5% or higher and lower than 20%)
4 | CC(CC1CC(O)=C(c2c(C)cc(-c3ccc(Cl)cc3)cc2C)C1=O)=NOCC(F)(F)F (centres unmarked) [9-024] | 5 (Herbicidal ratio of 90% or more (almost completely withered)) | 3 (Herbicidal ratio of 40% or higher and lower than 70%) | 5 (Herbicidal ratio of 90% or more (almost completely withered)) | 3 (Herbicidal ratio of 40% or higher and lower than 70%) | 5 (Herbicidal ratio of 90% or more (almost completely withered)) | 4 (Herbicidal ratio of 70% or higher and lower than 90%) | 2 (Herbicidal ratio of 20% or higher and lower than 40%) | 5 (Herbicidal ratio of 90% or more (almost completely withered)) | 5 (Herbicidal ratio of 90% or more (almost completely withered)) | 5 (Herbicidal ratio of 90% or more (almost completely withered)) | 4 (Herbicidal ratio of 70% or higher and lower than 90%) | 5 (Herbicidal ratio of 90% or more (almost completely withered)) | 0 (Herbicidal ratio of 5% or lower (almost no effect)) | 3 (Herbicidal ratio of 40% or higher and lower than 70%)
